Source: a melting point compilation (Tetko et al.; mined from patent text by program, amines drawn as free bases though some values may be those of a salt)

melting point [°C] | Compound
185 to 188 | O=C(C=Cc1ccc2ccccc2c1)c1cnc2sc3c(n12)CCCCC3
195 to 196 | N#Cc1ccc2c(c1)C(=O)OC2
98 to 99 | COc1cc(C)nc(-c2ccc(CBr)cc2)n1
146 | CC(C)CNC(=O)COC1c2ccccc2C(=O)N1c1ccc2ccc(Cl)nc2n1 (stereo unspecified)
88.4 to 90 | C=CC(=O)Oc1ccc(-c2cccc(F)c2F)cc1
111 to 124 | CCCCc1nc2cncc(C)c2[nH]1
214 | C=CCOc1ccc(-c2cc3ccccc3[nH]2)cc1
143 to 145 | CCOc1ccc(-c2[nH]c3ccc(OCc4ccccc4)cc3c2C)cc1
168 to 170 | Nc1cc(N)cc(O)c1
115 | O=C1C=CC(=O)C(CC(Cl)(Cl)Cl)=C1
54 to 56 | Cc1cc(C)c(/C=C/C2OCC(C)(C)CO2)c(Br)c1
129 to 130 | CSc1nnc2n1C=C(C)c1ccccc1C2
227 to 228 | CC(=O)Nc1c(C(=O)c2ccco2)[nH]c2cc(Cl)ccc12
78 to 80 | COc1cc(C(=O)c2ccccc2)cc([N+](=O)[O-])c1OC
97 to 98 | Cc1oc(-c2ccccc2)nc1COc1cccc(COc2cccc(CC(=O)O)c2)n1
114 to 116 | O=C(c1ccc(-c2ccc(C(CC3CCOCC3)c3ccc(S(=O)(=O)C4CC4)cc3)[nH]2)nc1)N1CCOCC1 (stereo unspecified)
171 | Cc1c(Cc2ccc(C(=O)O)s2)n(S(=O)(=O)c2cccc(C(C)(C)C)c2)c2ccc(C(F)(F)F)cc12
164 to 166 | O=C(Cc1csc(-c2c(O)cccc2O)n1)NC1C(=O)N2C(C(=O)OC(c3ccccc3)c3ccccc3)=CCSC12 (stereo unspecified)
120 | CC#CCOc1ccc(S(=O)(=O)C(CCCCCC#N)C(=O)NO)cc1 (stereo unspecified)
101 to 105 | Cc1cn2cccc(C=Cc3ccccc3)c2n1
182 to 184 | Cc1ccc(C(=O)c2[nH]c3cc(Cl)ccc3c2CC(=O)O)cc1
73 to 75 | O=C1CN(c2cccc(OCc3ccc(F)cc3)c2)NC(=O)N1
107 to 109 | CC(CCc1ccc(C(C)C(=O)O)cc1)C(=O)O (stereo unspecified)
72 to 73 | CN(C)CCNC(=O)N1CCC(Oc2ccccc2)C1 (stereo unspecified)

melting point [°C] | Compound
79 to 80 | O=C(O)CCCC1C(=O)Nc2ccccc21 (stereo unspecified)
203 to 205 | NC(=O)c1sc2nccc(N3CCCN(c4ccc(F)cc4)CC3)c2c1N
66 to 67 | CN(C)C=CC(=O)c1cccnc1
112 to 114 | COc1c(-c2ccc(S(C)(=O)=O)cc2)cnn(-c2cccc(Cl)c2)c1=O
229 | Nc1nc(O)cc(NC2CC2)n1
82 to 83 | CCN(CC)CCCNC(=O)Cn1ncc(-c2ccc(F)cc2)c1-c1ccccc1
81 to 82 | O=[N+]([O-])c1ccc(I)c(C(F)(F)F)c1
162 to 164 | COc1cc2c(cc1OC)C1Cc3cc(OC)c(OC(C)=O)cc3CN1CC2 (stereo unspecified)
157 to 159 | Cc1cc(N2CCN(CC3CC3)C2=O)sc1C(=O)NCc1cccnc1
58 to 59 | CC(C)(C)c1c(Cl)nc(Cl)nc1Cl
180 to 185 | CC(=O)Nc1ccc(C(=N)Nc2cc(NC(=O)/C=C/c3ccccc3C(F)(F)F)c(F)cc2F)cc1
177 to 178 | COC(=O)c1cc2ccc(Cl)cc2n1CC#N
96 | N#Cc1cc(C=O)cnc1Cl
172 to 175 | Cc1nnc2ncc(-c3ccccc3Cl)nn12
290 to 291 | CC1=Nc2c(F)c(F)c(F)c(F)c2SN1
77 to 80 | COc1nc(NC(C)C)nc(NC2CC2)n1
168 to 169 | C[C@@H]1CN(c2ccc(S(=O)(=O)c3ccccc3)c3ccccc23)C[C@H](C)N1
194 | CN1C(=O)c2cnc(-c3ccccc3)nc2N(C(=O)CN2CCN(Cc3ccccc3)CC2)c2ccccc21
105 to 107 | CCN(CC)CCCCC(=O)c1cc(Cl)c(N)cc1OCc1cc(OC)cc(OC)c1
138 to 140 | CCCCCCCCCCCCCCCCCCOc1cc(N(CC(=O)O)CC(=O)O)cc(S(=O)CC(=O)O)c1 (stereo unspecified)
139 to 141 | CC(C)(C(N)=O)c1ccc(Br)cc1
87 to 89 | CC(=O)SCC(C(=O)NCCc1ccncc1)C(F)(F)F (stereo unspecified)
207 | CCn1cc(C(=O)O)c(=O)c2cnc(N3CCN(Cc4ccccc4)CC3)nc21
219 to 220 | Cc1cc(C)nc(C(=O)n2cc(CC(=O)O)c3ccc(Cl)cc32)c1

melting point [°C] | Compound
130 to 131 | Nc1cc(CCC(=O)Nc2ccc(Cl)cc2Cl)ccc1O
111 to 112 | CCOC(=O)CCn1c(-c2ccccc2)c(-c2ccccc2)n(-c2ccccc2)c1=O
178 to 179 | COc1ccc(CNC(=O)c2ccc3n2Cc2ccccc2N(C(=O)c2ccc(-c4ccccc4C)c(OC)c2)C3)cc1
80 to 81 | COc1ccc(CC(C)=O)cc1S(=O)(=O)Cl
120 to 121 | Cc1c(S(=O)(=O)Nc2ccc(CO)cc2S(C)(=O)=O)sc2ccc(F)cc12
180 | Cc1cc(C#N)c(C)c(C(=O)Nc2ccn(C)n2)n1
100 to 102 | N#Cc1cc([N+](=O)[O-])ccc1N1CCNCC1CCO (stereo unspecified)
190 to 191 | CCOC(=O)C(=O)Nc1c([N+](=O)[O-])cc(Br)c2ccccc12
78 to 80 | COc1ccc(N)c(SSc2cc(OC)ccc2N)c1
129 to 132 | O=C(Cl)c1cccc(C(=O)Cl)c1[N+](=O)[O-]
162 to 164 | O=C1CCC(c2c[nH]c3ncccc23)CC1
85 to 90 | COc1ccc(C(=O)N(C)c2ccc(CO)cc2)cc1
150 to 152 | COC(=O)N1CCC(C2(NO)OCCO2)C(=O)C1 (stereo unspecified)
38 to 41 | O=C=NC1(c2ccccc2)CCC2(CC1)OCCO2
76 to 81 | COC(=O)CCc1ccc(NC(=O)N(NC(=O)c2ccccc2)c2ccc(C#N)cc2)cc1
153 to 155 | CCCc1nc(OC)c(NC(=O)N2CCN(c3cccc(O)c3)CC2)cc1C
157 to 159 | COC(=O)C(Oc1cc(OCc2ccc3ncoc3c2)ccc1C#N)c1ccccc1C (racemic)
129 to 130 | CC(C)COC(=O)Oc1c(S(N)(=O)=O)sc2ccccc12
128 to 130 | CCc1cccc2c3c([nH]c12)C(CC)(CC(=O)OC)OCC3 (stereo unspecified)
125 to 126 | COc1cc(NC(=S)NCCN)cc(OC)c1
> 260 | N#Cc1c[nH]c2cc3ccccc3cc2c1=O
70 to 72 | CCOC(=O)C(=O)c1cc(OC)c(OCOC)c2c(Cc3ccccc3)cccc12

Compound | melting point [°C]
OCCCN1CC=C(c2cn(-c3ccc(F)cc3)c3ccc(C(F)(F)F)cc23)CC1 | 173 to 175
O=C(O)c1cccc(Cc2c[nH]cn2)c1O | 245 to 252
COC12CC(C)(c3nc(-c4cncc(Br)c4)no3)CN(C)C1Cc1cn(C)c3cccc2c13 (stereo unspecified) | 185 to 189
CCc1nn(C)c2c1C(c1ccccc1)=NCC(C(=NO)C(=O)OC)=N2 | 225 to 227
CN1Cc2c(C(=O)O)ncn2-c2cccnc2C1=O | 292 to 295
C#CC1(O)CCC2C3CCC4CC=CCC4C3CCC21C (stereo unspecified) | 108 to 109
